# Assay results taken from patent US20250195463A1, “ORGANOMETALLIC COMPLEX, CONTROLLED-RELEASE MULTI-FUNCTIONAL DRUG, PHARMACEUTICAL COMPOSITION, PROCESSES FOR THE PREPARATION THEREOF AND THEIR USE” (FACULDADE DE CIÊNCIAS DA UNIVERSIDADE DE LISBOA, priority 2022, published 2025).
# Where two headings read alike, the source gives them in different places.
# What was measured:
# MDA-MB-231 (FGFR−) = experiment: MTT cytotoxicity assay; details: for IC50 range in words: Example 24; for IC50: read-out: Cytotoxic activity expressed as IC50, 48 h, 37° C.
# In short: (§1)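 Cells were exposed continuously for 48 h at 37 °C to compounds at 0.1 to 100 μM. In pH-controlled runs, RuPC1 stock was pre-incubated 48 h at pH 6.8 or 7.4, then tested at 0.1 to 50 μM. Viability was read by MTT (0.5 mg/mL, 3 h) absorbance at 570 nm versus untreated cells, with IC50 fitted.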
# SK-BR-3 (FGFR+) = experiment: MTT cytotoxicity assay; details: read-out: Cytotoxic activity expressed as IC50; Table 6; SK-BR-3 (FGFR+); 48 h, 37° C.
# In short: as §1
# MDA-MB-134-VI (FGFR+) = experiment: MTT cytotoxicity assay; details: read-out: Cytotoxic activity expressed as IC50; Table 6; MDA-MB-134-VI (FGFR+); 48 h, 37° C.
# In short: as §1
# MCF-7 (FGFR−) = experiment: MTT cytotoxicity assay; details: read-out: Cytotoxic activity expressed as IC50; Table 6; MCF-7 (FGFR−); 48 h, 37° C.
# In short: as §1
# [1] = Stability in aqueous medium (dimethyl sulfoxide/Dulbecco's Modified Eagle Medium) by UV-Vis spectroscopy; format: physicochemical; details: 5% dimethyl sulfoxide/95% Dulbecco's Modified Eagle Medium; for Relative variation of the maximum absorbance of the π→π* transitions: band 292-296 nm (λmax in column head); for Relative variation of the maximum absorbance of the charge transfer bands: band 358-400 nm (λmax in column head)
# In short: (§2)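 UV-Vis spectra (270-900 nm) were recorded at intervals from 0 to 24 h, at room temperature in the dark. Solvents were 100% DMSO, or 5% or 10% DMSO in DMEM depending on complex, at 7.0×10^-5 M to 3.0×10^-4 M.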
# [2] = Stability in organic medium (dimethyl sulfoxide) by UV-Vis spectroscopy; format: physicochemical; details: for Relative variation of the maximum absorbance of the π→π* transitions: band 289-300 nm (λmax in column head); for Relative variation of the maximum absorbance of the charge transfer bands: band 357-425 nm (λmax in column head)
# In short: as §2
structure (smiles),measurement,setting,value
NNC(=O)C1=C[CH]([Ru-]2([PH](c3ccccc3)(c3ccccc3)c3ccccc3)[n+]3ccccc3-c3cccc[n+]32)C=C1.O=S(=O)([O-])C(F)(F)F (stereo not drawn) [compound 4],IC50 range in words,MDA-MB-231 (FGFR−); MDA-MB-231,low micromolar range
same,IC50,"MDA-MB-231 (FGFR−); Table 5, MDA-MB-231",7.1 µM
same,IC50,"MDA-MB-231 (FGFR−); Table 6, MDA-MB-231 (FGFR−)",6.1 ± 1.3 µM
same,IC50,SK-BR-3 (FGFR+),7.5 ± 1 µM
same,IC50,MDA-MB-134-VI (FGFR+),7.1 ± 1.3 µM
same,IC50,MCF-7 (FGFR−),5.8 ± 0.8 µM
same,Relative variation of the maximum absorbance of the π→π* transitions,[1]; time 0 h,0.0%
same,Relative variation of the maximum absorbance of the charge transfer bands,[1]; time 0 h,0.0%
same,Relative variation of the maximum absorbance of the π→π* transitions,[1]; time 0.25 h,0.1%
same,Relative variation of the maximum absorbance of the charge transfer bands,[1]; time 0.25 h,−0.2%
same,Relative variation of the maximum absorbance of the π→π* transitions,[1]; time 0.5 h,0.1%
same,Relative variation of the maximum absorbance of the charge transfer bands,[1]; time 0.5 h,−0.7%
same,Relative variation of the maximum absorbance of the π→π* transitions,[1]; time 0.75 h,−0.4%
same,Relative variation of the maximum absorbance of the charge transfer bands,[1]; time 0.75 h,−1.3%
same,Relative variation of the maximum absorbance of the π→π* transitions,[1]; time 1 h,−0.3%
same,Relative variation of the maximum absorbance of the charge transfer bands,[1]; time 1 h,−0.9%
same,Relative variation of the maximum absorbance of the π→π* transitions,[1]; time 2 h,−0.6%
same,Relative variation of the maximum absorbance of the charge transfer bands,[1]; time 2 h,−0.7%
same,Relative variation of the maximum absorbance of the π→π* transitions,[1]; time 3 h,−0.9%
same,Relative variation of the maximum absorbance of the charge transfer bands,[1]; time 3 h,−1.4%
same,Relative variation of the maximum absorbance of the π→π* transitions,[1]; time 4 h,−1.2%
same,Relative variation of the maximum absorbance of the charge transfer bands,[1]; time 4 h,−0.7%
same,Relative variation of the maximum absorbance of the π→π* transitions,[1]; time 5 h,−1.5%
same,Relative variation of the maximum absorbance of the charge transfer bands,[1]; time 5 h,−2.1%
same,Relative variation of the maximum absorbance of the π→π* transitions,[1]; time 6 h,−1.7%
same,Relative variation of the maximum absorbance of the charge transfer bands,[1]; time 6 h,−2.3%
same,Relative variation of the maximum absorbance of the π→π* transitions,[1]; time 24 h,0.1%
same,Relative variation of the maximum absorbance of the charge transfer bands,[1]; time 24 h,3.0%
same,Relative variation of the maximum absorbance of the π→π* transitions,[2]; time 0 h,0.0%
same,Relative variation of the maximum absorbance of the charge transfer bands,[2]; time 0 h,0.0%
same,Relative variation of the maximum absorbance of the π→π* transitions,[2]; time 0.25 h,0.3%
same,Relative variation of the maximum absorbance of the charge transfer bands,[2]; time 0.25 h,0.0%
same,Relative variation of the maximum absorbance of the π→π* transitions,[2]; time 0.5 h,0.3%
same,Relative variation of the maximum absorbance of the charge transfer bands,[2]; time 0.5 h,−0.1%
same,Relative variation of the maximum absorbance of the π→π* transitions,[2]; time 0.75 h,0.3%
same,Relative variation of the maximum absorbance of the charge transfer bands,[2]; time 0.75 h,−0.2%
same,Relative variation of the maximum absorbance of the π→π* transitions,[2]; time 1 h,0.5%
same,Relative variation of the maximum absorbance of the charge transfer bands,[2]; time 1 h,0.1%
same,Relative variation of the maximum absorbance of the π→π* transitions,[2]; time 2 h,0.4%
same,Relative variation of the maximum absorbance of the charge transfer bands,[2]; time 2 h,−0.2%
same,Relative variation of the maximum absorbance of the π→π* transitions,[2]; time 3 h,0.6%
same,Relative variation of the maximum absorbance of the charge transfer bands,[2]; time 3 h,0.2%
same,Relative variation of the maximum absorbance of the π→π* transitions,[2]; time 4 h,0.7%
same,Relative variation of the maximum absorbance of the charge transfer bands,[2]; time 4 h,0.9%
same,Relative variation of the maximum absorbance of the π→π* transitions,[2]; time 5 h,−0.3%
same,Relative variation of the maximum absorbance of the charge transfer bands,[2]; time 5 h,1.0%
same,Relative variation of the maximum absorbance of the π→π* transitions,[2]; time 6 h,−0.2%
same,Relative variation of the maximum absorbance of the charge transfer bands,[2]; time 6 h,0.6%
same,Relative variation of the maximum absorbance of the π→π* transitions,[2]; time 24 h,−0.2%
same,Relative variation of the maximum absorbance of the charge transfer bands,[2]; time 24 h,1.6%
CC(=O)C1=C[CH]([Ru-]2([PH](c3ccccc3)(c3ccccc3)c3ccccc3)[n+]3ccccc3-c3cccc[n+]32)C=C1.O=S(=O)([O-])C(F)(F)F (stereo not drawn) [compound 5],IC50 range in words,MDA-MB-231 (FGFR−); MDA-MB-231,sub-micromolar range
same,IC50,"MDA-MB-231 (FGFR−); Table 5, MDA-MB-231",0.36 µM
same,Relative variation of the maximum absorbance of the π→π* transitions,[1]; time 0 h,0.0%
same,Relative variation of the maximum absorbance of the charge transfer bands,[1]; time 0 h,0.0%
same,Relative variation of the maximum absorbance of the π→π* transitions,[1]; time 0.25 h,0.6%
same,Relative variation of the maximum absorbance of the charge transfer bands,[1]; time 0.25 h,−1.0%
same,Relative variation of the maximum absorbance of the π→π* transitions,[1]; time 0.5 h,−0.1%
same,Relative variation of the maximum absorbance of the charge transfer bands,[1]; time 0.5 h,−2.1%
same,Relative variation of the maximum absorbance of the π→π* transitions,[1]; time 0.75 h,0.3%
same,Relative variation of the maximum absorbance of the charge transfer bands,[1]; time 0.75 h,−2.7%
same,Relative variation of the maximum absorbance of the π→π* transitions,[1]; time 1 h,0.0%
same,Relative variation of the maximum absorbance of the charge transfer bands,[1]; time 1 h,−3.4%
same,Relative variation of the maximum absorbance of the π→π* transitions,[1]; time 2 h,1.0%
same,Relative variation of the maximum absorbance of the charge transfer bands,[1]; time 2 h,−1.2%
same,Relative variation of the maximum absorbance of the π→π* transitions,[1]; time 3 h,0.7%
same,Relative variation of the maximum absorbance of the charge transfer bands,[1]; time 3 h,−3.4%
same,Relative variation of the maximum absorbance of the π→π* transitions,[1]; time 4 h,0.7%
same,Relative variation of the maximum absorbance of the charge transfer bands,[1]; time 4 h,−4.1%
same,Relative variation of the maximum absorbance of the π→π* transitions,[1]; time 5 h,0.7%
same,Relative variation of the maximum absorbance of the charge transfer bands,[1]; time 5 h,−5.1%
same,Relative variation of the maximum absorbance of the π→π* transitions,[1]; time 6 h,2.1%
same,Relative variation of the maximum absorbance of the charge transfer bands,[1]; time 6 h,0.3%
same,Relative variation of the maximum absorbance of the π→π* transitions,[1]; time 24 h,−1.8%
same,Relative variation of the maximum absorbance of the charge transfer bands,[1]; time 24 h,−3.0%
same,Relative variation of the maximum absorbance of the π→π* transitions,[2]; time 0 h,0.0%
same,Relative variation of the maximum absorbance of the charge transfer bands,[2]; time 0 h,0.0%
same,Relative variation of the maximum absorbance of the π→π* transitions,[2]; time 0.25 h,0.3%
same,Relative variation of the maximum absorbance of the charge transfer bands,[2]; time 0.25 h,0.1%
same,Relative variation of the maximum absorbance of the π→π* transitions,[2]; time 0.5 h,−0.5%
same,Relative variation of the maximum absorbance of the charge transfer bands,[2]; time 0.5 h,0.0%
same,Relative variation of the maximum absorbance of the π→π* transitions,[2]; time 0.75 h,−0.4%
same,Relative variation of the maximum absorbance of the charge transfer bands,[2]; time 0.75 h,0.2%
same,Relative variation of the maximum absorbance of the π→π* transitions,[2]; time 1 h,−0.3%
same,Relative variation of the maximum absorbance of the charge transfer bands,[2]; time 1 h,0.1%
same,Relative variation of the maximum absorbance of the π→π* transitions,[2]; time 2 h,−0.9%
same,Relative variation of the maximum absorbance of the charge transfer bands,[2]; time 2 h,0.3%
same,Relative variation of the maximum absorbance of the π→π* transitions,[2]; time 3 h,−1.2%
same,Relative variation of the maximum absorbance of the charge transfer bands,[2]; time 3 h,0.3%
same,Relative variation of the maximum absorbance of the π→π* transitions,[2]; time 4 h,−1.2%
same,Relative variation of the maximum absorbance of the charge transfer bands,[2]; time 4 h,0.3%
same,Relative variation of the maximum absorbance of the π→π* transitions,[2]; time 5 h,−1.5%
same,Relative variation of the maximum absorbance of the charge transfer bands,[2]; time 5 h,0.5%
same,Relative variation of the maximum absorbance of the π→π* transitions,[2]; time 6 h,−1.5%
same,Relative variation of the maximum absorbance of the charge transfer bands,[2]; time 6 h,0.2%
same,Relative variation of the maximum absorbance of the π→π* transitions,[2]; time 24 h,−1.9%
same,Relative variation of the maximum absorbance of the charge transfer bands,[2]; time 24 h,0.3%
